Tests used:
[1] = target: Serine/threonine-protein kinase TAO2 (Homo sapiens) (UniProt Q9UL54); details: Compound concentration 1000.0 nM
[2] = target: Epidermal growth factor receptor (Homo sapiens) (UniProt P00533); details: Compound concentration 1000.0 nM
[3] = target: Histamine H4 receptor (Homo sapiens) (UniProt Q9H3N8); details: Compound concentration 10.0 uM
[4] = target: D(2) dopamine receptor (Homo sapiens) (UniProt P14416); details: Compound concentration 10.0 uM
[5] = test system: Tyrosine-protein kinase ABL1 (Homo sapiens), P00519 [Q252H]; details: Compound concentration 1000.0 nM
[6] = test system: Receptor-type tyrosine-protein kinase FLT3 (Homo sapiens), P36888 [UNDEFINED MUTATION]; details: Compound concentration 1000.0 nM
[7] = target: Mitogen-activated protein kinase 7 (Homo sapiens) (UniProt Q13164); details: Compound concentration 1000.0 nM
[8] = target: Homeodomain-interacting protein kinase 2 (Homo sapiens) (UniProt Q9H2X6); details: Compound concentration 1000.0 nM
[9] = test system: Leucine-rich repeat serine/threonine-protein kinase 2 (Homo sapiens), Q5S007 [G2019S]; details: Compound concentration 1000.0 nM
[10] = target: Ribosomal protein S6 kinase alpha-1 (Homo sapiens) (UniProt Q15418); details: Compound concentration 1000.0 nM
[11] = target: Serine/threonine-protein kinase NLK (Homo sapiens) (UniProt Q9UBE8); details: Compound concentration 1000.0 nM
[12] = target: Serine/threonine-protein kinase BRSK2 (Homo sapiens) (UniProt Q8IWQ3); details: Compound concentration 1000.0 nM
[13] = target: Activin receptor type-1-like (Homo sapiens) (UniProt P37023); details: Compound concentration 1000.0 nM
[14] = target: Tyrosine-protein kinase JAK1 (Homo sapiens) (UniProt P23458); details: Compound concentration 1000.0 nM
[15] = test system: Tyrosine-protein kinase ABL1 (Homo sapiens), P00519 [T315I]; details: Compound concentration 1000.0 nM
[16] = target: Mitogen-activated protein kinase 15 (Homo sapiens) (UniProt Q8TD08); details: Compound concentration 1000.0 nM
[17] = target: Ribosomal protein S6 kinase alpha-3 (Homo sapiens) (UniProt P51812); details: Compound concentration 1000.0 nM
[18] = target: Wee1-like protein kinase 2 (Homo sapiens) (UniProt P0C1S8); details: Compound concentration 1000.0 nM
[19] = target: Calcium/calmodulin-dependent protein kinase type 1B (Homo sapiens) (UniProt Q6P2M8); details: Compound concentration 1000.0 nM
[20] = target: Serine/threonine-protein kinase TAO3 (Homo sapiens) (UniProt Q9H2K8); details: Compound concentration 1000.0 nM
[21] = target: Inhibitor of nuclear factor kappa-B kinase subunit alpha (Homo sapiens) (UniProt O15111); details: Compound concentration 1000.0 nM
[22] = target: 5-hydroxytryptamine receptor 2B (Homo sapiens) (UniProt P41595); details: Compound concentration 10.0 uM
[23] = target: Serine/threonine-protein kinase haspin (Homo sapiens) (UniProt Q8TF76); details: Compound concentration 1000.0 nM
[24] = target: Proto-oncogene tyrosine-protein kinase ROS (Homo sapiens) (UniProt P08922); details: Compound concentration 1000.0 nM
[25] = target: Calcium/calmodulin-dependent protein kinase type II subunit gamma (Homo sapiens) (UniProt Q13555); details: Compound concentration 1000.0 nM
[26] = target: Homeodomain-interacting protein kinase 3 (Homo sapiens) (UniProt Q9H422); details: Compound concentration 1000.0 nM
[27] = target: Calcium/calmodulin-dependent protein kinase type 1 (Homo sapiens) (UniProt Q14012); details: Compound concentration 1000.0 nM
[28] = target: Cyclin-dependent kinase 8 (Homo sapiens) (UniProt P49336); details: Compound concentration 1000.0 nM
[29] = target: SRSF protein kinase 1 (Homo sapiens) (UniProt Q96SB4); details: Compound concentration 1000.0 nM
[30] = target: Serine/threonine-protein kinase MARK2 (Homo sapiens) (UniProt Q7KZI7); details: Compound concentration 1000.0 nM
[31] = test system: Phosphatidylinositol 4,5-bisphosphate 3-kinase catalytic subunit alpha isoform (Homo sapiens), P42336 [C420R]; details: Compound concentration 1000.0 nM
[32] = target: Muscarinic acetylcholine receptor M5 (Homo sapiens) (UniProt P08912); details: Compound concentration 10.0 uM
[33] = target: Serine/threonine-protein kinase SBK1 (Homo sapiens) (UniProt Q52WX2); details: Compound concentration 1000.0 nM
[34] = target: Uncharacterized serine/threonine-protein kinase SBK3 (Homo sapiens) (UniProt P0C264); details: Compound concentration 1000.0 nM
[35] = target: 5'-AMP-activated protein kinase catalytic subunit alpha-1 (Homo sapiens) (UniProt Q13131); details: Compound concentration 1000.0 nM
[36] = target: Phosphatidylinositol 3-kinase C2 domain-containing subunit gamma (Homo sapiens) (UniProt O75747); details: Compound concentration 1000.0 nM
[37] = target: Phosphorylase b kinase gamma catalytic chain, skeletal muscle/heart isoform (Homo sapiens) (UniProt Q16816); details: Compound concentration 1000.0 nM
[38] = target: Phosphatidylinositol 4,5-bisphosphate 3-kinase catalytic subunit delta isoform (Homo sapiens) (UniProt O00329); details: Compound concentration 1000.0 nM
[39] = target: MAP/microtubule affinity-regulating kinase 3 (Homo sapiens) (UniProt P27448); details: Compound concentration 1000.0 nM
[40] = target: Misshapen-like kinase 1 (Homo sapiens) (UniProt Q8N4C8); details: Compound concentration 1000.0 nM
[41] = target: Mitogen-activated protein kinase kinase kinase kinase 5 (Homo sapiens) (UniProt Q9Y4K4); details: Compound concentration 1000.0 nM
[42] = target: Microtubule-associated serine/threonine-protein kinase 1 (Homo sapiens) (UniProt Q9Y2H9); details: Compound concentration 1000.0 nM
[43] = target: Myosin-IIIb (Homo sapiens) (UniProt Q8WXR4); details: Compound concentration 1000.0 nM
[44] = target: Serine/threonine-protein kinase PLK4 (Homo sapiens) (UniProt O00444); details: Compound concentration 1000.0 nM

Sequence of Misshapen-like kinase 1 (Homo sapiens) (Q8N4C8 whole entry, looked up): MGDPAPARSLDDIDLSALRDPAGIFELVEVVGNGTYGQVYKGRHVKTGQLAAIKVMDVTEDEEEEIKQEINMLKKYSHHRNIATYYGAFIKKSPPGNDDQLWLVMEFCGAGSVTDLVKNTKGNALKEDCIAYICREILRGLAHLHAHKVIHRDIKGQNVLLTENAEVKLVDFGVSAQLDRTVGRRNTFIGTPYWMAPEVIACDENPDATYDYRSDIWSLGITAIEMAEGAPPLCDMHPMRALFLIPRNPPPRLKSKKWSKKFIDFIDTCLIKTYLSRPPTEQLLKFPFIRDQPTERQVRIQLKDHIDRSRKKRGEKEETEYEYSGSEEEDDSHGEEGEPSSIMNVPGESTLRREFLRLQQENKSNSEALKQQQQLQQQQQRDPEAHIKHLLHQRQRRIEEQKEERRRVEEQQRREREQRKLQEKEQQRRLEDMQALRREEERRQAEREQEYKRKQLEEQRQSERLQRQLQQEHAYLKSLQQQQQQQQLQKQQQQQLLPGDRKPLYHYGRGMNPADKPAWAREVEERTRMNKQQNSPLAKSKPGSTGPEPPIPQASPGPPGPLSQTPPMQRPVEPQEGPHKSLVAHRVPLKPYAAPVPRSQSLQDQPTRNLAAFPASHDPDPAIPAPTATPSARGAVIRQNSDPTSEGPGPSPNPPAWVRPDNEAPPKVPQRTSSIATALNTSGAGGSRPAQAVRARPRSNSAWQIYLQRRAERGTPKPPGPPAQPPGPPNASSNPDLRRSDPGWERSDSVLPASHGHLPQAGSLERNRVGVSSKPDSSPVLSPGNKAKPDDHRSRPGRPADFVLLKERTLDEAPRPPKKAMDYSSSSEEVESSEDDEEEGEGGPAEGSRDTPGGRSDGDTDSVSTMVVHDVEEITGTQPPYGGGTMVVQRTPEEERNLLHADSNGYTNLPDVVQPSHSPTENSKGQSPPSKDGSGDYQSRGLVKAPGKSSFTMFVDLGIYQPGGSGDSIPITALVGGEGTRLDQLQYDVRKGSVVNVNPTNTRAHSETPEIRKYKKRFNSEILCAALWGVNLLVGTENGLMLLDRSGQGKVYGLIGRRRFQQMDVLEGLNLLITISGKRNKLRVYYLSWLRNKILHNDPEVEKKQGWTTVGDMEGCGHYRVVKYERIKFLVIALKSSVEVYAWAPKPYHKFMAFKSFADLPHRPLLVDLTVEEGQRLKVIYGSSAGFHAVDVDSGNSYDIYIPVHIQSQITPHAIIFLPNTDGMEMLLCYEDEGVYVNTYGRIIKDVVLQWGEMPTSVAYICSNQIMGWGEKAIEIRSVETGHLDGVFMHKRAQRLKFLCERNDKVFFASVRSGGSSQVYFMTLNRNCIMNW
Sequence of Serine/threonine-protein kinase SBK1 (Homo sapiens) (Q52WX2 whole entry): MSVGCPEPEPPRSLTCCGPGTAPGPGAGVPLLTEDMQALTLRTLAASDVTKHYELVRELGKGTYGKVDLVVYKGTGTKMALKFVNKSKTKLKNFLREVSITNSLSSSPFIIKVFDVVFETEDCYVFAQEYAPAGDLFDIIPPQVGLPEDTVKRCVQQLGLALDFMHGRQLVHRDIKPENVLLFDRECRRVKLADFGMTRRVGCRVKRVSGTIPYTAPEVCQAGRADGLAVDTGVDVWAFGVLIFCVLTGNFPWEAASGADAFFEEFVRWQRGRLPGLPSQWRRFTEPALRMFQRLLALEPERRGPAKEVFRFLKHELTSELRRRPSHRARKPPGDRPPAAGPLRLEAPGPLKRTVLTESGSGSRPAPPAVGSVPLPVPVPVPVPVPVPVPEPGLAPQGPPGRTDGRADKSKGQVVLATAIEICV
Sequence of Calcium/calmodulin-dependent protein kinase type II subunit gamma (Homo sapiens) (Q13555 whole entry): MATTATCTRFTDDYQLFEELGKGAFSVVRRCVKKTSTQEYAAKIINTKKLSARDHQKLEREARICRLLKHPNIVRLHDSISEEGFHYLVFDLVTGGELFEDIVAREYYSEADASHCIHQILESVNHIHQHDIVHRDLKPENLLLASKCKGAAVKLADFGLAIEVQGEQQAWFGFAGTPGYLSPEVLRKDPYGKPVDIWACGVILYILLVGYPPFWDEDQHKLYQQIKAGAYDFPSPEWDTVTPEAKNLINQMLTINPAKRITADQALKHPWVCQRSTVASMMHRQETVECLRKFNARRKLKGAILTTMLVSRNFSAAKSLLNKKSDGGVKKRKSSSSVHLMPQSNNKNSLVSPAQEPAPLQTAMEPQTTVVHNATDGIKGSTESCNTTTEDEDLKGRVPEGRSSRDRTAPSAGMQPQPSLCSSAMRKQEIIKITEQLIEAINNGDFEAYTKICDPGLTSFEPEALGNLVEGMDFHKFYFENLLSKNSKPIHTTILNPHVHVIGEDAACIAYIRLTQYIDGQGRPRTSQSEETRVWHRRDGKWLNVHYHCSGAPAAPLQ
Sequence of Mitogen-activated protein kinase kinase kinase kinase 5 (Homo sapiens) (Q9Y4K4 whole entry, looked up): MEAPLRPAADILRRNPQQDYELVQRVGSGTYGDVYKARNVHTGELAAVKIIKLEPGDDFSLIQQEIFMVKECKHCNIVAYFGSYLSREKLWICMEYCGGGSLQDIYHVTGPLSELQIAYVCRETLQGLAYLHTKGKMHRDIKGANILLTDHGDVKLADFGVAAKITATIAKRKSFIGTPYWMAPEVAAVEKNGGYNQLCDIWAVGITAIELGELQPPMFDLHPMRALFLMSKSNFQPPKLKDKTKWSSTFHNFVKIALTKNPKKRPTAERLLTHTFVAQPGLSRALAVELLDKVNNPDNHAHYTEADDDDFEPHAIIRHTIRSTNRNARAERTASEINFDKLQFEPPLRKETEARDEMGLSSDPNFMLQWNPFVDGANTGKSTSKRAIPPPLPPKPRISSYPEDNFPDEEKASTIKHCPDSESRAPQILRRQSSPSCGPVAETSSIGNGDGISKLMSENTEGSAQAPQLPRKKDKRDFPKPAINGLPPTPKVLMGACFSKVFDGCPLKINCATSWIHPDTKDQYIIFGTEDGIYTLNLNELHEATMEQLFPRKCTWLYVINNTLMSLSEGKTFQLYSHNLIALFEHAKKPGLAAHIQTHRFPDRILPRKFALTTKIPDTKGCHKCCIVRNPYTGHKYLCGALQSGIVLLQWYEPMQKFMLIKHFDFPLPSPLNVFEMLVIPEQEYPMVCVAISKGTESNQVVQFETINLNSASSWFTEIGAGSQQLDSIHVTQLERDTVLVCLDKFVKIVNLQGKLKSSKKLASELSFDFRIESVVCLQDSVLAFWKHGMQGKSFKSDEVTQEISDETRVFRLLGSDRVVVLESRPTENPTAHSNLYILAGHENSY
Sequence of Calcium/calmodulin-dependent protein kinase type 1B (Homo sapiens) (Q6P2M8 whole entry): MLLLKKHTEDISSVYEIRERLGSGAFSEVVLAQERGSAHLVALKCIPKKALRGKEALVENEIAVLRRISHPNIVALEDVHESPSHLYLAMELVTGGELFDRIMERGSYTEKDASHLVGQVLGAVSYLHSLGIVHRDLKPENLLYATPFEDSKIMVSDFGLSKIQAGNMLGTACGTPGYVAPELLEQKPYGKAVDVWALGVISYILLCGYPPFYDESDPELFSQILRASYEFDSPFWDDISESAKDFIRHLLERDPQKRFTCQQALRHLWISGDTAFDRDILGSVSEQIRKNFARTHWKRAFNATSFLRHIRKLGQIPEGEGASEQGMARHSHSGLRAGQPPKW
Sequence of Serine/threonine-protein kinase NLK (Homo sapiens) (Q9UBE8 whole entry): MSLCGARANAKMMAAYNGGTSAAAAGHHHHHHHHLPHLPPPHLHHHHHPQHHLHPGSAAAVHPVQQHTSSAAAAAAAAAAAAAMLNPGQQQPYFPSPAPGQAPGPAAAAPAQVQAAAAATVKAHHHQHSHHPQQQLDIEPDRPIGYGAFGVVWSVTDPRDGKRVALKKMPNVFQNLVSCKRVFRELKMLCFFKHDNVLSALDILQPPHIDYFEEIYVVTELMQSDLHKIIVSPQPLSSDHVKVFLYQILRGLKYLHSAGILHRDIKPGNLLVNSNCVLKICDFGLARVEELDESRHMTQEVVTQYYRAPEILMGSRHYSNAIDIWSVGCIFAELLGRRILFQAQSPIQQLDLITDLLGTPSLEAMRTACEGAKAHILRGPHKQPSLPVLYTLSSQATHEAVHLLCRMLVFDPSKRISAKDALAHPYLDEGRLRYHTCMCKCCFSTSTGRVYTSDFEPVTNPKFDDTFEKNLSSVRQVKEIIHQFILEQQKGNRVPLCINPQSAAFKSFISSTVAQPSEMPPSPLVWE
Sequence of 5'-AMP-activated protein kinase catalytic subunit alpha-1 (Homo sapiens) (Q13131 whole entry, looked up, the tested form may be a part): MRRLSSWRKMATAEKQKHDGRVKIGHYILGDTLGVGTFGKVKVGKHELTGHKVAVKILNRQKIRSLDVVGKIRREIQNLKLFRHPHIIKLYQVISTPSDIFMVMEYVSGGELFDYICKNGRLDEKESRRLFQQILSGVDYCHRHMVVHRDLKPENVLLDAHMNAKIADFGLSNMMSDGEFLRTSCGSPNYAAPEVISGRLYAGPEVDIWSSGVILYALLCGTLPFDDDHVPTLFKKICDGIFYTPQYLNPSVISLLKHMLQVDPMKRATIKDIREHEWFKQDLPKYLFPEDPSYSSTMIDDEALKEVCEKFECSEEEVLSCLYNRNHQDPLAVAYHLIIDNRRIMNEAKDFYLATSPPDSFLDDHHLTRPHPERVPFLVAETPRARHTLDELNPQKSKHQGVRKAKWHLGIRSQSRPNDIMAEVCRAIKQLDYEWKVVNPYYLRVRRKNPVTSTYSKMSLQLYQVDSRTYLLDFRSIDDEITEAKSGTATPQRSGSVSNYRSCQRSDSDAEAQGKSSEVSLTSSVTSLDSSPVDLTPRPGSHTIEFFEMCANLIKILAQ
Sequence of Calcium/calmodulin-dependent protein kinase type 1 (Homo sapiens) (Q14012 whole entry, looked up): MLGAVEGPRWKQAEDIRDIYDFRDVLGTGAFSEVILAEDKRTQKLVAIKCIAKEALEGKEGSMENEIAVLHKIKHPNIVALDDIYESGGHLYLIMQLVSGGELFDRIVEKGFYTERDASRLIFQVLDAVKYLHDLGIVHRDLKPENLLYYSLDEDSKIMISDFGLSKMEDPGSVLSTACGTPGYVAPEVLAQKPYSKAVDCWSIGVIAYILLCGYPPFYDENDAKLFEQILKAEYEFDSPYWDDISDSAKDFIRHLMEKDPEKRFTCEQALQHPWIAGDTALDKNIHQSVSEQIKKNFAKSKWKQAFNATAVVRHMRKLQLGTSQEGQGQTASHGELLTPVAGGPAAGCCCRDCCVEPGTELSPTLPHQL

How did the residual activity [1] turn out when Cc1c(NC(=O)c2cc(C(N)=O)nc3cc(F)ccc23)c(C(F)(F)F)nn1Cc1ccc(C(C)(C)C)cc1 [BAY-588] was run?
Its residual activity is 100%.

And the residual activity [2]?
Its residual activity is 100%.

And the inhibition [3]?
The inhibition was 13%.

What about the inhibition [4] of the same compound?
The inhibition was 18%.

What about the residual activity [5] of the same compound?
Its residual activity is 100%.

And the residual activity [6]?
Its residual activity is 100%.

What about the residual activity [7] of the same compound?
Its residual activity is 100%.

And the residual activity [8]?
Its residual activity is 100%.

What about the residual activity [9] of the same compound?
Its residual activity is 100%.

And the residual activity [10]?
The residual activity was 100%.

And the residual activity [11]?
Its residual activity is 100%.

And the residual activity [12]?
Its residual activity is 100%.

And the residual activity [13]?
The residual activity was 94%.

And the residual activity [14]?
The residual activity was 100%.

And the residual activity [15]?
The residual activity was 100%.

And the residual activity [16]?
The residual activity was 56%.

What about the residual activity [17] of the same compound?
Its residual activity is 100%.

And the residual activity [18]?
The residual activity was 96%.

What about the residual activity [19] of the same compound?
Its residual activity is 100%.

And the residual activity [20]?
The residual activity was 45%.

And the residual activity [21]?
The residual activity was 100%.

And the inhibition [22]?
The inhibition was -8.78%.

And the residual activity [23]?
The residual activity was 100%.

And the residual activity [24]?
Its residual activity is 100%.

What about the residual activity [25] of the same compound?
The residual activity was 82%.

And the residual activity [26]?
The residual activity was 100%.

What about the residual activity [27] of the same compound?
Its residual activity is 82%.

What about the residual activity [28] of the same compound?
The residual activity was 100%.

What about the residual activity [29] of the same compound?
The residual activity was 100%.

What about the residual activity [30] of the same compound?
The residual activity was 100%.

And the residual activity [31]?
The residual activity was 100%.

And the inhibition [32]?
Its inhibition is 7.12%.

And the residual activity [33]?
Its residual activity is 100%.

What about the residual activity [34] of the same compound?
The residual activity was 100%.

And the residual activity [35]?
Its residual activity is 100%.

What about the residual activity [36] of the same compound?
The residual activity was 100%.

And the residual activity [37]?
Its residual activity is 100%.

And the residual activity [38]?
Its residual activity is 100%.

And the residual activity [39]?
Its residual activity is 100%.

What about the residual activity [40] of the same compound?
The residual activity was 90%.

What about the residual activity [41] of the same compound?
The residual activity was 92%.

And the residual activity [42]?
Its residual activity is 100%.

What about the residual activity [43] of the same compound?
Its residual activity is 100%.

What about the residual activity [44] of the same compound?
The residual activity was 100%.

With Cc1c(NC(=O)c2cc(C(N)=O)nc3cc(F)ccc23)c(C(F)(F)F)nn1Cc1ccc(C#N)cc1 [BAY-876] as the compound, how does the residual activity [1] read?
The residual activity was 85%.

What about the residual activity [2] of the same compound?
The residual activity was 100%.

And the inhibition [3]?
Its inhibition is 29%.

And the inhibition [4]?
Its inhibition is 8.73%.

What about the residual activity [5] of the same compound?
The residual activity was 81%.

And the residual activity [6]?
The residual activity was 95%.

And the residual activity [7]?
The residual activity was 95%.

And the residual activity [8]?
The residual activity was 83%.

What about the residual activity [9] of the same compound?
Its residual activity is 100%.

And the residual activity [10]?
The residual activity was 78%.

And the residual activity [11]?
The residual activity was 100%.

What about the residual activity [12] of the same compound?
Its residual activity is 100%.

And the residual activity [13]?
The residual activity was 100%.

And the residual activity [14]?
Its residual activity is 86%.

What about the residual activity [15] of the same compound?
The residual activity was 100%.

What about the residual activity [16] of the same compound?
The residual activity was 100%.

And the residual activity [17]?
The residual activity was 87%.

What about the residual activity [18] of the same compound?
Its residual activity is 100%.

What about the residual activity [19] of the same compound?
Its residual activity is 64%.

And the residual activity [20]?
The residual activity was 79%.

What about the residual activity [21] of the same compound?
Its residual activity is 65%.

And the inhibition [22]?
Its inhibition is 11.1%.

What about the residual activity [23] of the same compound?
The residual activity was 67%.

What about the residual activity [24] of the same compound?
The residual activity was 99%.

What about the residual activity [25] of the same compound?
Its residual activity is 86%.

What about the residual activity [26] of the same compound?
Its residual activity is 85%.

What about the residual activity [27] of the same compound?
Its residual activity is 100%.

What about the residual activity [28] of the same compound?
Its residual activity is 56%.

What about the residual activity [29] of the same compound?
The residual activity was 83%.

What about the residual activity [30] of the same compound?
The residual activity was 97%.

What about the residual activity [31] of the same compound?
Its residual activity is 70%.

What about the inhibition [32] of the same compound?
The inhibition was 4.88%.

And the residual activity [33]?
Its residual activity is 75%.

And the residual activity [34]?
Its residual activity is 100%.

What about the residual activity [35] of the same compound?
The residual activity was 86%.

And the residual activity [36]?
The residual activity was 61%.

And the residual activity [37]?
Its residual activity is 100%.

And the residual activity [38]?
Its residual activity is 66%.

And the residual activity [39]?
The residual activity was 100%.

And the residual activity [40]?
Its residual activity is 89%.

And the residual activity [41]?
Its residual activity is 74%.

What about the residual activity [42] of the same compound?
Its residual activity is 77%.

And the residual activity [43]?
The residual activity was 100%.

And the residual activity [44]?
The residual activity was 100%.

Source: ChEMBL document CHEMBL4507267 (2021)
